The values that follow are results of earlier work, collected in article PMC8513935.

Structures are written as SMILES.

Data set [1] in a line: log P octanol/water from commercial databases, averaged (the ESI). The note with it: Octanol (wet), 25 C.
A short description of data set [2]: experimental, compiled by the authors from the literature (the ESI cites the sources).
The nature of data set [3]: derived by the authors as gas->solvent minus gas->water (a hypothetical dry solvent; the ESI), not a two-phase measurement.

In the case of `C1CCNC1`, in data set [1], the log K of transfer, water to solvent was 0.465 log10 K.
As to `C1CCCCC1`, the log K of transfer, gas to solvent in data set [2] (1,2-Dichloroethane, 25 C) was 2.79 log10 K; in data set [2] (2-Methylpropan-1-ol, 25 C) it was 2.83 log10 K; in data set [2] (2-Methylpropan-2-ol, 25 C) it was 2.69 log10 K; in data set [2] (Benzene, 25 C) it was 2.97 log10 K; in data set [2] (Butan-1-ol, 25 C) it was 2.73 log10 K; in data set [2] (Butan-2-ol, 25 C) it was 2.67 log10 K. Moreover, the log K of transfer, gas to solvent in data set [2] (Butanone, 25 C) was 2.75 log10 K; in data set [2] (Butyronitrile, 25 C), 2.67 log10 K; in data set [2] (CCl4, 25 C) it was 3.22 log10 K; in data set [2] (Chlorobenzene, 25 C), 3.23 log10 K; in data set [2] (Chloroform, 25 C), 3.26 log10 K; in data set [2] (Cyclohexane, 25 C), 3.25 log10 K. Also, the log K of transfer, gas to solvent is 2.81 log10 K in data set [2] (Cyclohexanone, 25 C); 2.5 log10 K in data set [2] (Decan-1-ol, 25 C); 3.01 log10 K in data set [2] (Di-n-butyl ether, 25 C); 3.01 log10 K in data set [2] (Dichloromethane, 25 C); 3.07 log10 K in data set [2] (Diethyl Ether, 25 C); 2.55 log10 K in data set [2] (Ethanol, 25 C). Moreover, the log K of transfer, gas to solvent in data set [2] (Heptan-1-ol, 25 C) was 2.73 log10 K; in data set [2] (Hexadecane, 25 C), 2.96 log10 K; in data set [2] (Hexan-1-ol, 25 C) it was 2.75 log10 K; in data set [2] (Hexane, 25 C) it was 3.1 log10 K; in data set [2] (Methanol, 25 C) it was 2.43 log10 K; in data set [2] (Octan-1-ol, 25 C), 2.71 log10 K. Further, the log K of transfer, gas to solvent in data set [2] (Pentan-1-ol, 25 C) is 2.72 log10 K; in data set [2] (Perfluoroalkane, 25 C) it was 1.96 log10 K; in data set [2] (Propan-1-ol, 25 C), 2.55 log10 K; in data set [2] (Propan-2-ol, 25 C), 2.53 log10 K; in data set [2] (Propanone, 25 C), 2.6 log10 K; in data set [2] (Propionitrile, 25 C), 2.51 log10 K. Besides, the log K of transfer, gas to solvent in data set [2] (Tetrahydrofuran, 25 C) is 3.13 log10 K; in data set [2] (Water, 25 C), -0.9 log10 K. Also, the log K of transfer, water to solvent was 3.69 log10 K in data set [3] (1,2-Dichloroethane, 25 C); 3.73 log10 K in data set [3] (2-Methylpropan-1-ol, 25 C); 3.59 log10 K in data set [3] (2-Methylpropan-2-ol, 25 C); 3.5 log10 K in data set [3] (Acetone, 25 C); 3.87 log10 K in data set [3] (Benzene, 25 C); 3.63 log10 K in data set [3] (Butan-1-ol, 25 C). Further, the log K of transfer, water to solvent in data set [3] (Butan-2-ol, 25 C) was 3.57 log10 K; in data set [3] (Butanone, 25 C), 3.65 log10 K; in data set [3] (Butyronitrile, 25 C), 3.57 log10 K; in data set [3] (CCl4, 25 C) it was 4.12 log10 K; in data set [3] (Chlorobenzene, 25 C), 4.13 log10 K; in data set [3] (Chloroform, 25 C) it was 4.16 log10 K. Also, the log K of transfer, water to solvent is 4.15 log10 K in data set [3] (Cyclohexane, 25 C); 3.71 log10 K in data set [3] (Cyclohexanone, 25 C); 3.4 log10 K in data set [3] (Decan-1-ol, 25 C); 3.91 log10 K in data set [3] (Di-n-butyl ether, 25 C); 3.91 log10 K in data set [3] (Dichloromethane, 25 C); 3.97 log10 K in data set [3] (Diethyl Ether, 25 C). Besides, the log K of transfer, water to solvent in data set [3] (Ethanol, 25 C) is 3.45 log10 K; in data set [3] (Heptan-1-ol, 25 C) it was 3.63 log10 K; in data set [3] (Hexadecane, 25 C) it was 3.86 log10 K; in data set [3] (Hexan-1-ol, 25 C) it was 3.65 log10 K; in data set [3] (Hexane, 25 C), 4 log10 K; in data set [3] (Methanol, 25 C), 3.33 log10 K. Moreover, the log K of transfer, water to solvent in data set [3] (Octan-1-ol(dry), 25 C) is 3.61 log10 K; in data set [3] (Pentan-1-ol, 25 C) it was 3.62 log10 K; in data set [3] (Perfluoroalkane, 25 C), 2.86 log10 K; in data set [3] (Propan-1-ol, 25 C), 3.45 log10 K; in data set [3] (Propan-2-ol, 25 C), 3.43 log10 K; in data set [3] (Propionitrile, 25 C) it was 3.41 log10 K. Moreover, the log K of transfer, water to solvent in data set [3] (Tetrahydrofuran, 25 C) was 4.03 log10 K.
As to `CNC(C)=O`, the log K of transfer, gas to solvent in data set [2] (Hexadecane, 25 C) was 2.97 log10 K; in data set [2] (Water, 25 C) it was 6.88 log10 K. Moreover, the log K of transfer, water to solvent in data set [3] (Hexadecane, 25 C) is -3.9 log10 K.
In the case of `CCCCCCCCCCCCCC`, in data set [1], the log K of transfer, water to solvent is 8 log10 K.
As for `CCCCCCCCl`, the log K of transfer, gas to solvent was 4.21 log10 K in data set [2] (Hexadecane, 25 C) and -0.21 log10 K in data set [2] (Water, 25 C). Moreover, the log K of transfer, water to solvent in data set [3] (Hexadecane, 25 C) is 4.42 log10 K.
Consider `Cc1cncc(C)c1`, for which the log K of transfer, gas to solvent in data set [2] (Hexadecane, 25 C) was 4.21 log10 K; in data set [2] (Water, 25 C), 3.55 log10 K. Besides, the log K of transfer, water to solvent in data set [3] (Hexadecane, 25 C) is 0.664 log10 K.
As to `CCCCCF`, the log K of transfer, gas to solvent in data set [2] (Hexadecane, 25 C) is 2.44 log10 K; in data set [2] (Water, 25 C), -0.21 log10 K. In addition, the log K of transfer, water to solvent in data set [3] (Hexadecane, 25 C) is 2.65 log10 K.
Take `Cc1ccncc1`: the log K of transfer, gas to solvent in data set [2] (CCl4, 25 C) was 4.46 log10 K; in data set [2] (Hexadecane, 25 C), 3.64 log10 K; in data set [2] (Water, 25 C), 3.62 log10 K. In addition, the log K of transfer, water to solvent in data set [3] (CCl4, 25 C) was 0.84 log10 K; in data set [3] (Hexadecane, 25 C) it was 0.02 log10 K.
Turning to `NC1CCCCC1`, the log K of transfer, gas to solvent was 3.79 log10 K in data set [2] (Hexadecane, 25 C) and 3.37 log10 K in data set [2] (Water, 25 C). Besides, in data set [3] (Hexadecane, 25 C), the log K of transfer, water to solvent was 0.426 log10 K.
On to `c1ccc2ncccc2c1`, for which the log K of transfer, gas to solvent in data set [2] (Chloroform, 25 C) is 6.98 log10 K; in data set [2] (Hexadecane, 25 C) it was 5.45 log10 K; in data set [2] (Water, 25 C), 4.2 log10 K. For the same molecule, the log K of transfer, water to solvent in data set [3] (Chloroform, 25 C) was 2.78 log10 K; in data set [3] (Hexadecane, 25 C) it was 1.26 log10 K.
As to `c1ccc2cnccc2c1`, the log K of transfer, gas to solvent in data set [2] (Chloroform, 25 C) is 6.9 log10 K; in data set [2] (Hexadecane, 25 C), 5.59 log10 K; in data set [2] (Water, 25 C), 3.92 log10 K. Also, the log K of transfer, water to solvent in data set [3] (Chloroform, 25 C) was 2.98 log10 K; in data set [3] (Hexadecane, 25 C), 1.67 log10 K.
Regarding `CCSCC`, the log K of transfer, gas to solvent was 4.69 log10 K in data set [2] (Chloroform, 25 C); 3.02 log10 K in data set [2] (Hexadecane, 25 C); 1.07 log10 K in data set [2] (Water, 25 C). Further, the log K of transfer, water to solvent in data set [3] (Chloroform, 25 C) was 3.62 log10 K.
Take `CCCCCCCCCCCCCCCCCCCCO`: the log K of transfer, gas to solvent was 12 log10 K in data set [2] (Decan-1-ol, 25 C); 10.7 log10 K in data set [2] (Hexadecane, 25 C); 12.1 log10 K in data set [2] (Hexan-1-ol, 25 C); 12.1 log10 K in data set [2] (Octan-1-ol, 25 C); 11.9 log10 K in data set [2] (Propan-2-ol, 25 C); 1.54 log10 K in data set [2] (Water, 25 C). The log K of transfer, water to solvent was 10.5 log10 K in data set [3] (Decan-1-ol, 25 C); 9.12 log10 K in data set [3] (Hexadecane, 25 C); 10.5 log10 K in data set [3] (Hexan-1-ol, 25 C); 10.5 log10 K in data set [3] (Octan-1-ol(dry), 25 C); 10.3 log10 K in data set [3] (Propan-2-ol, 25 C).
As to `CCCCNCCCC`, the log K of transfer, gas to solvent was 4.35 log10 K in data set [2] (Hexadecane, 25 C) and 2.38 log10 K in data set [2] (Water, 25 C). In data set [3] (Hexadecane, 25 C), the log K of transfer, water to solvent was 1.97 log10 K.
On to `CCCCCCCCCCCCCCCCCCO`, for which the log K of transfer, gas to solvent is 10.9 log10 K in data set [2] (Decan-1-ol, 25 C); 10.6 log10 K in data set [2] (Di-n-butyl ether, 25 C); 11 log10 K in data set [2] (Diethyl Ether, 25 C); 9.66 log10 K in data set [2] (Hexadecane, 25 C); 10.9 log10 K in data set [2] (Hexan-1-ol, 25 C); 10.9 log10 K in data set [2] (Octan-1-ol, 25 C). In addition, the log K of transfer, gas to solvent in data set [2] (Propan-2-ol, 25 C) was 10.9 log10 K; in data set [2] (Water, 25 C), 1.78 log10 K. The log K of transfer, water to solvent in data set [3] (Decan-1-ol, 25 C) is 9.12 log10 K; in data set [3] (Di-n-butyl ether, 25 C), 8.85 log10 K; in data set [3] (Diethyl Ether, 25 C), 9.2 log10 K; in data set [3] (Hexadecane, 25 C) it was 7.88 log10 K; in data set [3] (Hexan-1-ol, 25 C), 9.16 log10 K; in data set [3] (Octan-1-ol(dry), 25 C), 9.15 log10 K. For the same molecule, the log K of transfer, water to solvent in data set [3] (Propan-2-ol, 25 C) is 9.12 log10 K.
As for `OC12CC3CC(CC(C3)C1)C2`, the log K of transfer, gas to solvent in data set [2] (Hexadecane, 25 C) is 5.63 log10 K; in data set [2] (Water, 25 C), 5.15 log10 K. Also, the log K of transfer, water to solvent in data set [3] (Hexadecane, 25 C) was 0.484 log10 K.
As to `CCCCCc1ccccc1`, the log K of transfer, gas to solvent in data set [2] (Hexadecane, 25 C) is 5.23 log10 K; in data set [2] (Water, 25 C) it was 0.17 log10 K. In data set [3] (Hexadecane, 25 C), the log K of transfer, water to solvent is 5.06 log10 K.
